From the NIST ThermoML archive (doi:10.1021/je100720x)

Assay: osmotic coefficient (dimensionless); mn = molality of the nth substance listed, in mol/kg
Settings: 298.15 K, Liquid, isopiestic method

CCn1cc[n+](C)c1.[Br-] [1-ethyl-3-methylimidazolium bromide] + O
Settings	osmotic coefficient
m1 = 0.5514	0.811
m1 = 0.6588	0.801
m1 = 0.6883	0.799
m1 = 0.7764	0.795
m1 = 0.9367	0.787
m1 = 1.04	0.786
m1 = 1.943	0.763
m1 = 2.308	0.757
m1 = 2.542	0.759
m1 = 3.189	0.763
m1 = 4.359	0.786
m1 = 5.41	0.821
m1 = 7.17	0.883

O=P([O-])(O)O.[K+] [monopotassium phosphate] + O
Settings	osmotic coefficient
m1 = 0.6269	0.8
m1 = 0.9843	0.744
m1 = 1.113	0.731
m1 = 1.228	0.717
m1 = 1.27	0.715
m1 = 1.508	0.696
m1 = 1.707	0.68

O=P([O-])([O-])O.[K+].[K+] [dipotassium hydrogen phosphate] + O
Settings	osmotic coefficient
m1 = 0.6496	0.711
m1 = 0.7592	0.704
m1 = 1.112	0.69
m1 = 1.251	0.69
m1 = 1.604	0.689
m1 = 1.712	0.694
m1 = 1.965	0.696
m1 = 2.163	0.709

O=P([O-])([O-])[O-].[K+].[K+].[K+] [tripotassium phosphate] + O
Settings	osmotic coefficient
m1 = 0.4308	0.694
m1 = 0.5142	0.698
m1 = 0.6347	0.705
m1 = 0.7575	0.708
m1 = 0.8132	0.716
m1 = 1.002	0.744
m1 = 1.012	0.745
m1 = 1.241	0.778
m1 = 1.695	0.866
m1 = 1.83	0.893
